Measured values taken from patent US20230241014A1, “MEK-INHIBITORS FOR THE TREATMENT OR PREVENTION OF CORONAVIRUS INFECTIONS AND/OR COVID-19 CYTOKINE STORM” (priority 2020, published 2023).

Key:
pERK1/2 = experiment: Wes analysis of ERK phosphorylation in SARS-CoV-2 infected Caco-2 cells; type: cell-based, Homo sapiens; details: CaCo-2 cells infected SARS-CoV-2 (MOI 0.1); 0.098-100 μM, 24 h
Protocol: For the Virus yield reduction assay a 24-well plate (Greiner Bio-One, Cat. 662-160) with 95% confluent Caco-2 cells was prepared. The wells were washed once with Caco-2 infection medium DMEM (Gibco, Cat. 41965-039) supplemented with 5% FCS (Capricorn, Cat. FBS-12A), 1% Penicillin/Streptomycin, (Sigma Aldrich, Cat. P4333) and 1% Non-essential amino acids (NEAA) (Merck, Cat. K 0293). Cells were infected with SARS-CoV-2 (MOI 0.1) for 1 h in 200 μL Caco-2 infection medium per well. Afterwards the Virus inoculum was removed completely and cells were treated with 1 mL per well with different concentrations of ATR-002 (100 μM, 50 μM, 25 μM, 12.5 μM, 6.25 μM, 3.125 μM, 1.56 μM, 0.78 μM, 0.39 μM, 0.195 μM, 0.098 μM, 0 μM) in Caco-2 infection medium with 1% DMSO for 24 h at 37° C., 5% CO2. […]
Wes™ capillary electrophoresis by ProteinSimple® was used to identify and quantify pERK1/2, ERK1/2 and SARS-CoV-2 Nucleoprotein. Cell lysates were diluted with 0.1×Sample Buffer (ProteinSimple, Abingdon, Oxford, UK) to approximately 50 ng total protein per lane and analyzed using specific antibodies. […] The anti-rabbit secondary antibody (ProteinSimple, Cat. DM-001) and anti-mouse secondary antibody (ProteinSimple, Cat. DM-002) and all other reagents for WES analysis were also purchased from ProteinSimple and were ready to use.

[1] = test system: SARS-CoV-2 viral gene RdRP; type: cell-based; details: Vero cells, MOI 0.01, 50 μM, 24, 36 and 48 hpi
MCP-1 = MCP-1 in SARS-CoV-2 infected CaCo2 cells; type: cell-based, Homo sapiens; details: high amount necessary
SARS-CoV-2 (FI) = type: cell-based; details: primary human ALI cultures, MOI 1.0, 50 μM and 100 μM, three cultures
ACE2 = ACE2 expression in Calu-3 cells (immunofluorescence microscopy, WES); type: cell-based, Homo sapiens; details: 100 μM, 24 h
Protocol: After this, it was tested whether ACE2 expression is reduced in cells after ATR-002 treatment. Calu-3 cells were treated with ATR-002 for 24 hours and the results were analysed via immunofluorescence microscopy and WES technology. Specifically, Calu-3 cells were seeded on glass cover slips in 24-well plates, 1×10^5 cells per well and incubated for 48 h at 37° C., 5% CO2 After washing the cells with medium (IMDM with 10% FBS and 1% P/S), 1 mL of 100 μM ATR-002 in medium or 1 mL 1% DMSO in medium (solvent control) were added to the wells and incubated for 24 h at 37° C., 5% CO2.
Then the wells were washed once with PBS and fixed with 300 μL/well 4% PFA in PBS for 10 minutes at room temperature. […] The slides were let dry at 4° C. in the dark and then analysed using a confocal laser scanning microscope (LSM800, Zeiss).

[2] = test system: MxA and IL8 mRNA expression; experiment: poly (I:C) stimulation of A549 cells, MxA and IL8 mRNA; details: A549, 100 ng/ml poly (I:C), 24 h

Question: Which results are given for `O=C(O)c1ccc(F)c(F)c1Nc1ccc(I)cc1Cl` [ATR-002, 2-(2-chloro-4-iodophenylamino)-N-3,4-difluoro benzoic acid]?
Answer: inhibition of ERK (phosphorylation) (pERK1/2): seen at concentrations of 50 and 100 μM; SARS-CoV-2 viral gene RdRP genome copies [1]: confirmed; MCP-1 expression (MCP-1): able to reduce MCP-1 expression; production of progeny viral particles (SARS-CoV-2 (FI)): completely blocked the production of progeny viral particles; ACE2 on Calu-3 cells (ACE2): reduction of ACE2; MxA mRNA expression (anti-viral interferon system) [2]: constant expression of MxA mRNA; IL8 mRNA expression ([2]; even low concentrations): strong reduction
